Test results reported in article PMC9972884 (Biochemistry, 2009).
Read-outs that look alike come from different tables or passages of the source.

Experiments:
[1] = target: T1, GST-hPPARγ (recombinant human PPARγ) (Homo sapiens, UniProt P37231); experiment: Radioligand competition scintillation proximity binding assay, PPARγ
T1 sequence (P37231 1-505): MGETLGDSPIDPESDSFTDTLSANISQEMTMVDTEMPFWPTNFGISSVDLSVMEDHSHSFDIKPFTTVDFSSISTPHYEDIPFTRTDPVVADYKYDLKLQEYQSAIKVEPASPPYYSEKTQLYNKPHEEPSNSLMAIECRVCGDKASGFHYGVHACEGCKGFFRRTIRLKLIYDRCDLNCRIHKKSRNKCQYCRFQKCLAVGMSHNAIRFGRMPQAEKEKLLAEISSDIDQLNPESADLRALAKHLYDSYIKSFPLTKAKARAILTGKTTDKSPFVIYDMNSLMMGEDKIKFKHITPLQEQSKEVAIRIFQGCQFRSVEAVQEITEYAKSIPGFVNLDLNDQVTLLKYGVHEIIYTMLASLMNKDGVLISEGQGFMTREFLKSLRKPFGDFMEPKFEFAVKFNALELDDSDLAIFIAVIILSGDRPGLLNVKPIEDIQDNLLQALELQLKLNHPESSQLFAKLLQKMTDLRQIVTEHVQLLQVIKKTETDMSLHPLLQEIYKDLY

[2] = target: T2, GST-hPPARα (recombinant human PPARα) (Homo sapiens, UniProt Q07869); experiment: Radioligand competition scintillation proximity binding assay, PPARα
T2 sequence (Q07869 1-468): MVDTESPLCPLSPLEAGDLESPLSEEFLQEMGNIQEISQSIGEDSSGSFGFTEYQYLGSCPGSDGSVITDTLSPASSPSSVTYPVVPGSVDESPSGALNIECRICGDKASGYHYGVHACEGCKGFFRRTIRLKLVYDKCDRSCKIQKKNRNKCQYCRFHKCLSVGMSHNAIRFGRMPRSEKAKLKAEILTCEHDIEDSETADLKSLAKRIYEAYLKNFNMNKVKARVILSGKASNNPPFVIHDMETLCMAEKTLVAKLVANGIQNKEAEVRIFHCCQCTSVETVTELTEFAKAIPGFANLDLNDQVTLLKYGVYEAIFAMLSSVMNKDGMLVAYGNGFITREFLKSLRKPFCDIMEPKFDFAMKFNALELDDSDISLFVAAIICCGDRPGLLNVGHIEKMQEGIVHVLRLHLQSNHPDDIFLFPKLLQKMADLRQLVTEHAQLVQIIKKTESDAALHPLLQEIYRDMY

PPARγ = target: T3, PPARγ (Homo sapiens, UniProt P37231); format: cell-based; conditions: for PPARγ activation (in words): concentrations as high as 100 µM; for effect on induction by rosiglitazone (coincubation): 0–5 µM NO2-LA isomer with fixed 0.1 µM rosiglitazone; for mean induction as a percentage of induction by 0.1 µM rosiglitazone (100%): ligands at 5 µM, mean of 6–18 determinations ± SEM; for agonist (full or partial): relative to rosiglitazone, defined as full agonist
T3 sequence (P37231 1-477 isoform P37231-2): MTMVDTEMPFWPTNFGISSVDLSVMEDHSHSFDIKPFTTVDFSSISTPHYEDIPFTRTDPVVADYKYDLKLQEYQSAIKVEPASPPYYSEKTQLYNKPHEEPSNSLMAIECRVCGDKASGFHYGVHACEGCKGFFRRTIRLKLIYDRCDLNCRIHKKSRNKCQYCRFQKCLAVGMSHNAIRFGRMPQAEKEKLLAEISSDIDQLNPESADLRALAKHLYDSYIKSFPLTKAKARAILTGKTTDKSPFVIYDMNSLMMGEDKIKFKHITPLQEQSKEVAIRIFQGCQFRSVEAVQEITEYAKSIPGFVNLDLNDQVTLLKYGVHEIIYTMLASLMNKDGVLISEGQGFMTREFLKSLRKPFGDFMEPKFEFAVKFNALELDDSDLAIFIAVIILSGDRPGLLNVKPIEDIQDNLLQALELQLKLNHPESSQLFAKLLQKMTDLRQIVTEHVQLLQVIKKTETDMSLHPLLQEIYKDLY

Compound	IC50 [1] [µM]	binding affinity for PPARγ (in words) [1]	IC50 [2] [µM]	PPARγ activation (in words) (PPARγ)	PPARγ activation (in words) (PPARγ; listed as Linoleic acid)	EC50 fold higher than for 12-NO2-LA (PPARγ)	maximum level of PPARγ activation as % of that of the 12-NO2 isomer (PPARγ)	effect on induction by rosiglitazone (coincubation) (PPARγ)	mean induction as a percentage of induction by 0.1 µM rosiglitazone (100%) (PPARγ) [%]	agonist (full or partial) (PPARγ)	agonist (full or partial) (PPARγ; listed as 13-NO2-LA)	apparent affinity for PPARα (in words) [2]	agonist (full or partial) (PPARγ; listed as 12-NO2)	agonist (full or partial) (PPARγ; listed as 12-NO2-LA)
CCCCC/C=C\C/C=C\CCCCCCCC(=O)O [linoleic acid, (9Z,12Z)-octadeca-9,12-dienoic acid, reference compound]	10.7	very low affinity	> 15	negligible PPARγ activation	does not support activation	–	–	–	–	–	–	–	–	–
CCCCC/C(=C\C/C=C\CCCCCCCC(=O)O)[N+](=O)[O-] [13-NO2-linoleic acid, (9Z,12E)-13-nitrooctadeca-9,12-dienoic acid]	0.44	–	> 15	–	–	more than 10 fold	~ 50%	significantly reduced the level of induction by rosiglitazone	41 ± 5	partial	partial agonists	–	–	–
CCCCC/C=C(\C/C=C\CCCCCCCC(=O)O)[N+](=O)[O-] [12-NO2-linoleic acid, (9Z,12E)-12-nitrooctadeca-9,12-dienoic acid]	–	–	–	–	–	–	–	less pronounced	76 ± 9	partial	–	very low	nearly full agonist activity	partial agonists
